Results: ChEMBL document CHEMBL1909046, “DrugMatrix in vitro pharmacology data”

Tests used:
[1] = DRUGMATRIX: Atrial Natriuretic Factor (ANF) radioligand binding (ligand: [125I] ANF (rat)); assay type: cell membranes, Cavia porcellus, Dunkin-Hartley, Adrenal gland, Membrane; details: Not Active = under 50% inhibition at 10 µM
[2] = target: Protein phosphatase 3 catalytic subunit alpha (Homo sapiens, UniProt Q08209); parameters: species or system Escherichia coli;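 note: inhibition of calcineurin (PP2B) enzyme activity, measured with DiFMUP as the substrate; in other assays of this panel Not Active means under 50% inhibition at 10 µM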
[3] = target: T1, Cysteinyl leukotriene receptor 1 (Homo sapiens, UniProt Q9Y271); assay type: cell membranes, CHO-K1, Membrane; details: cho-k1; note: in other assays of this panel Not Active means under 50% inhibition at 10 µM
T1 sequence (Q9Y271 whole entry): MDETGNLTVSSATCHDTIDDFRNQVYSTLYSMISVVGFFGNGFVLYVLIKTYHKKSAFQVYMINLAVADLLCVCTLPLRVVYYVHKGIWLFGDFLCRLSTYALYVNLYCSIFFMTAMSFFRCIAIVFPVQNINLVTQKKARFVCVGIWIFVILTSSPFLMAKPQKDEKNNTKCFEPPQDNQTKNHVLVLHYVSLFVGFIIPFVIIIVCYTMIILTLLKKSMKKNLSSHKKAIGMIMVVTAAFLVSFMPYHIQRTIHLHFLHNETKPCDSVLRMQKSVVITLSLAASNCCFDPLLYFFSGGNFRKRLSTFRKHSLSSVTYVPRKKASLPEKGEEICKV

Cathepsin G = target: T2, Cathepsin G (Homo sapiens, UniProt P08311); assay type: tissue-based; details: neutrophil;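 note: inhibition of Cathepsin G enzyme activity, tested on an AMC-conjugated peptide substrate; in other assays of this panel Not Active means under 50% inhibition at 10 µM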
T2 sequence (P08311 whole entry): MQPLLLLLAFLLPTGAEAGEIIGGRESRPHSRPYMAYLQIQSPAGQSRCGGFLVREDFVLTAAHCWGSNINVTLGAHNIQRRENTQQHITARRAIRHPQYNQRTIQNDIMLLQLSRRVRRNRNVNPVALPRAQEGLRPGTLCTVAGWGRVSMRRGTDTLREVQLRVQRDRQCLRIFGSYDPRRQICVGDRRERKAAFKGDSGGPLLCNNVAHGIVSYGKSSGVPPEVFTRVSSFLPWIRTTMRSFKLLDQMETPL

[4] = target: 5-hydroxytryptamine receptor 6 (Homo sapiens, UniProt P50406); assay type: cell membranes, HeLa, Membrane; details: hela; note: in other assays of this panel Not Active means under 50% inhibition at 10 µM
5-hydroxytryptamine receptor 6, sequence (P50406 whole entry): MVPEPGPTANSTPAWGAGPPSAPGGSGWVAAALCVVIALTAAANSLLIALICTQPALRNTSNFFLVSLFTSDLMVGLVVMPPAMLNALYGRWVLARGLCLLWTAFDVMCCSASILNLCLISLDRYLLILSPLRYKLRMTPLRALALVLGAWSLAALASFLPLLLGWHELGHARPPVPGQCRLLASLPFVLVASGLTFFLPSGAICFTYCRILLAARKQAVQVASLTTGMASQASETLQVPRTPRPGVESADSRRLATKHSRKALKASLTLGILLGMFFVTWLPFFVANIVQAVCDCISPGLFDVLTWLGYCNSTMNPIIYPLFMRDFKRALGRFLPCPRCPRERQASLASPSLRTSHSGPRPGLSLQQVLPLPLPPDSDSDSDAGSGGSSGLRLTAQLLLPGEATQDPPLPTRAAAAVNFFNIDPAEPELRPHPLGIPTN

[5] = DRUGMATRIX: Platelet-Derived Growth Factor (PDGF) radioligand binding (ligand: [125I] PDGF); assay type: cell-based; details: nih3t3; Not Active = under 50% inhibition at 10 µM
[6] = target: Kappa-type opioid receptor (Homo sapiens, UniProt P41145); assay: DRUGMATRIX: Opiate kappa (OP2, KOP) radioligand binding (ligand: [3H] Diprenorphine); assay type: cell membranes, HEK293, Membrane; details: Not Active = under 50% inhibition at 10 µM
Kappa-type opioid receptor, sequence (P41145 whole entry): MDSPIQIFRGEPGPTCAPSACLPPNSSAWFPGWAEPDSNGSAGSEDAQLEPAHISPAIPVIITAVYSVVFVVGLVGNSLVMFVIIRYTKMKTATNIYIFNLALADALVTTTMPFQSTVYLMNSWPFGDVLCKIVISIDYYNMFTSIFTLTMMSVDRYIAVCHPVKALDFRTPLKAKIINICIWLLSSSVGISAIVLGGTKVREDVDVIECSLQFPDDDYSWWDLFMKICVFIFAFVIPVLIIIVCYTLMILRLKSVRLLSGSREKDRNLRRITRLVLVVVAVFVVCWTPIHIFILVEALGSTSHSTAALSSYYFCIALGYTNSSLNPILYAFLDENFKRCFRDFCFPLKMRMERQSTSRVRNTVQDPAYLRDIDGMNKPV

[7] = target: T3, Alpha-2C adrenergic receptor (Homo sapiens, UniProt P18825); assay: DRUGMATRIX: Adrenergic Alpha-2C radioligand binding (ligand: [3H] MK-912); assay type: cell membranes, Sf9, Membrane; details: for Ki: read-out: Ki
T3 sequence (P18825 whole entry): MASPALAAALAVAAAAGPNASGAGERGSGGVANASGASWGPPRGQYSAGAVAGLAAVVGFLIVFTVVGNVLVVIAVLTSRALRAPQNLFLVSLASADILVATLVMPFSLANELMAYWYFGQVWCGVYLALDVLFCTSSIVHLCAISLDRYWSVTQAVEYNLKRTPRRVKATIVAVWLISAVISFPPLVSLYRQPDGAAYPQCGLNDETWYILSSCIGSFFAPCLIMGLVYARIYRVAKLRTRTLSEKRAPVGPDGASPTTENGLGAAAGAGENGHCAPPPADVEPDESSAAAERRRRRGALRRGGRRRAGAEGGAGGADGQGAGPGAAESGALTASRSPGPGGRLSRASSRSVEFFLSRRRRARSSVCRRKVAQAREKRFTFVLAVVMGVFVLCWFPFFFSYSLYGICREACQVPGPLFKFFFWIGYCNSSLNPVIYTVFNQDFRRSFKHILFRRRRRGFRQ

| Compound | IC50 [1] | Ki [1] | IC50 [2] | IC50 [3] | IC50 (Cathepsin G) | IC50 [4] | IC50 [5] | Ki [5] | IC50 ([6]; hek293) | IC50 ([7]; sf9) | IC50 ([6]; read-out: IC50) | Ki ([6]; read-out: Ki) | IC50 ([7]; read-out: IC50) | Ki [7] |
| --- | --- | --- | --- | --- | --- | --- | --- | --- | --- | --- | --- | --- | --- | --- |
| CC[C@@H](CO)NCCN[C@@H](CC)CO [ETHAMBUTOL] | Not Active | Not Active | Not Active | Not Active | Not Active | Not Active | Not Active | Not Active | Not Active | Not Active |  |  |  |  |
| CC1(C)O[C@@H]2C[C@H]3[C@@H]4C[C@H](F)C5=CC(=O)C=C[C@]5(C)[C@H]4[C@@H](O)C[C@]3(C)[C@]2(C(=O)CO)O1 [FLUNISOLIDE] | Not Active | Not Active | Not Active | Not Active | Not Active | Not Active | Not Active | Not Active | Not Active | Not Active |  |  |  |  |
| CC1(C)O[C@@H]2C[C@H]3[C@@H]4C[C@H](F)C5=CC(=O)C=C[C@]5(C)[C@@]4(F)[C@@H](O)C[C@]3(C)[C@]2(C(=O)CO)O1 [FLUOCINOLONE ACETONIDE] | Not Active | Not Active | Not Active | Not Active | Not Active | Not Active | Not Active | Not Active | Not Active | Not Active |  |  |  |  |
| CC1(C)O[C@@H]2C[C@H]3[C@@H]4C[C@H](F)C5=CC(=O)CC[C@]5(C)[C@H]4[C@@H](O)C[C@]3(C)[C@]2(C(=O)CO)O1 [FLURANDRENOLIDE] | Not Active | Not Active | Not Active | Not Active | Not Active | Not Active | Not Active | Not Active | Not Active | Not Active |  |  |  |  |
| CN(C)c1ccc(C(=C2C=CC(=[N+](C)C)C=C2)c2ccc(N(C)C)cc2)cc1.[Cl-] [GENTIAN VIOLET] | Not Active | Not Active | Not Active | Not Active | Not Active | Not Active | Not Active | Not Active |  |  | 1.54 µM | 0.616 µM | 1.88 µM | 0.274 µM |
| Cc1ccc(S(=O)(=O)NC(=O)NN2CC3CCCC3C2)cc1 (stereo not drawn) [GLICLAZIDE] | Not Active | Not Active | Not Active | Not Active | Not Active | Not Active | Not Active | Not Active | Not Active | Not Active |  |  |  |  |
| NC(=O)NO [HYDROXYUREA] | Not Active | Not Active | Not Active | Not Active | Not Active | Not Active | Not Active | Not Active | Not Active | Not Active |  |  |  |  |
| CC(C)Cc1ccc(C(C)C(=O)O)cc1 (stereo not drawn) [IBUPROFEN] | Not Active | Not Active | Not Active | Not Active | Not Active | Not Active | Not Active | Not Active | Not Active | Not Active |  |  |  |  |
| COc1ccc2c(c1)c(CC(=O)O)c(C)n2C(=O)c1ccc(Cl)cc1 [INDOMETHACIN] | Not Active | Not Active | Not Active | Not Active | Not Active | Not Active | Not Active | Not Active | Not Active | Not Active |  |  |  |  |
| CCc1c2c(nc3ccc(OC(=O)N4CCC(N5CCCCC5)CC4)cc13)-c1cc3c(c(=O)n1C2)COC(=O)[C@]3(O)CC [IRINOTECAN] | Not Active | Not Active | Not Active | Not Active | Not Active | Not Active | Not Active | Not Active | Not Active |  |  |  | 3.17 µM | 0.461 µM |
| CC(C(=O)O)c1cccc(C(=O)c2ccccc2)c1 (stereo not drawn) [KETOPROFEN] | Not Active | Not Active | Not Active | Not Active | Not Active | Not Active | Not Active | Not Active | Not Active | Not Active |  |  |  |  |
| Nc1ccn([C@@H]2CS[C@H](CO)O2)c(=O)n1 [LAMIVUDINE] | Not Active | Not Active | Not Active | Not Active | Not Active | Not Active | Not Active | Not Active | Not Active | Not Active |  |  |  |  |
| O=S(=O)([O-])CCS.[Na+] [MESNA] | Not Active | Not Active | Not Active | Not Active | Not Active | Not Active | Not Active | Not Active | Not Active | Not Active |  |  |  |  |
| C#C[C@]1(O)CC[C@H]2[C@@H]3CCc4cc(OC)ccc4[C@H]3CC[C@@]21C [MESTRANOL] | Not Active | Not Active | Not Active | Not Active | Not Active | Not Active | Not Active | Not Active | Not Active | Not Active |  |  |  |  |
| CC(=O)Nc1cccc(O)c1 [METACETAMOL] | Not Active | Not Active | Not Active | Not Active | Not Active | Not Active | Not Active | Not Active | Not Active | Not Active |  |  |  |  |
| Cc1ncc([N+](=O)[O-])n1CCO [METRONIDAZOLE] | Not Active | Not Active | Not Active | Not Active | Not Active | Not Active | Not Active | Not Active | Not Active | Not Active |  |  |  |  |
| CC(C)(C(=O)c1cccnc1)c1cccnc1 [METYRAPONE] | Not Active | Not Active | Not Active | Not Active | Not Active | Not Active | Not Active | Not Active | Not Active | Not Active |  |  |  |  |
| Oc1ccc(OCc2ccccc2)cc1 [MONOBENZONE] | Not Active | Not Active | Not Active | Not Active | Not Active | Not Active | Not Active | Not Active | Not Active | Not Active |  |  |  |  |
| CC(C)(Oc1ccc(C2CCCc3ccccc32)cc1)C(=O)O (stereo not drawn) [NAFENOPIN] | Not Active | Not Active | Not Active | Not Active | Not Active | Not Active | Not Active | Not Active | Not Active | Not Active |  |  |  |  |
| COc1ccc2cc([C@H](C)C(=O)O)ccc2c1 [NAPROXEN] | Not Active | Not Active | Not Active | Not Active | Not Active | Not Active | Not Active | Not Active | Not Active | Not Active |  |  |  |  |
| CC(C)[C@H]1CC[C@H](C(=O)N[C@H](Cc2ccccc2)C(=O)O)CC1 [NATEGLINIDE] | Not Active | Not Active | Not Active | Not Active | Not Active | Not Active | Not Active | Not Active | Not Active | Not Active |  |  |  |  |
| CCN[C@@H]1C[C@H](N)[C@@H](O[C@H]2OC(CN)=CC[C@H]2N)[C@H](O)[C@H]1O[C@H]1OC[C@](C)(O)[C@H](NC)[C@H]1O [NETILMICIN] | Not Active | Not Active | Not Active | Not Active | Not Active | Not Active | Not Active | Not Active | Not Active | Not Active |  |  |  |  |
